Laboratory results: patent US20120196854A1, “PHARMACEUTICAL COMPOSITION COMPRISING AROMATIC HETEROCYCLIC COMPOUND” (Kyowa Hakko Kirin Co., Ltd., priority 2009, published 2012)

Tested on: mdx mice
Assay: Myodegeneration in spontaneous muscular dystrophy model (mdx) mice
Type: in vivo, mouse
Settings: in drinking water, about 30 mg/kg
Method: mdx Mice (C57BL/10ScSn-Dmd^mdx) were purchased in male and female pairs from Jackson Laboratories, and bred in-house for use. After weaned at 3 weeks old, male mdx mice were selected, which were subjected to the test from 4 weeks old. Compound 133 was dissolved in MEYLON 84 (registered trademark, 8.4% sodium bicarbonate injection, Otsuka) to prepare 12 mL of a 3 mg/mL solution thereof. This was added to and mixed with 188 mL of sterile tap water (final concentration of the compound: 180 μg/mL), and the mixture was administered by unrestricted intake (actual dose of the compound was about 30 mg/kg). […]
As evaluation of the diaphragm muscle, the degenerated and/or necrotic muscle area ratio of the diaphragm was determined. […] The thus prepared specimen was digitally shot at 20-fold magnification using a digital microscope (VHX-1000, KEYENCE, Osaka) and the images were recorded in TIFF format. Using the nature that degenerated and/or necrotic muscle absorbs EB and turns blue (J. Anat., 2002, 200, 69-79), the area of the diaphragm piece and the area of blue region showing the distribution of degenerated and/or necrotic muscle were determined with an image analyzer (LUZEX AP, Nireco, Tokyo). […]
For evaluation of the posterior crural muscle, the degenerated and/or necrotic muscle area ratio of the gastrocnemius muscle was determined. […]

## O=C(O)c1cc(-c2ccco2)nc2ccc3nn(-c4ccccc4)nc3c12 [Compound 133, 7-(furan-2-yl)-2-phenyl-2H-[1,2,3]triazolo[4,5-f]quinoline-9-carboxylic acid]
  inhibition of degeneration and/or necrosis of the diaphragm: 40%
  inhibition of degeneration and/or necrosis of the gastrocnemius muscle: 49%
